Common to all, as to format: biochemical
One experiment has as its target T1, FGFR3 (K650E) (Homo sapiens, UniProt P22607, K650E).
T1 construct: amino acids 411-806 of the cytoplasmic domain of human FGFR-3, N-terminally fused to GST; made in house; host or cells: Sf9 insect cells (baculovirus)
The experiment in a line: Recombinant GST-FGFR-3-K650E tyrosine kinase assay (33P into poly(Glu,Tyr)). As to conditions: 10 μM; Examples 1 to 169; read-out: FGFR3 (K650E) inhibition at 10 μM.

The next experiment deals with T2, KDR (Homo sapiens, UniProt P35968).
T2 construct: expressed in transfected cells; host or cells: CHO cells
T2 sequence (P35968 20-1356): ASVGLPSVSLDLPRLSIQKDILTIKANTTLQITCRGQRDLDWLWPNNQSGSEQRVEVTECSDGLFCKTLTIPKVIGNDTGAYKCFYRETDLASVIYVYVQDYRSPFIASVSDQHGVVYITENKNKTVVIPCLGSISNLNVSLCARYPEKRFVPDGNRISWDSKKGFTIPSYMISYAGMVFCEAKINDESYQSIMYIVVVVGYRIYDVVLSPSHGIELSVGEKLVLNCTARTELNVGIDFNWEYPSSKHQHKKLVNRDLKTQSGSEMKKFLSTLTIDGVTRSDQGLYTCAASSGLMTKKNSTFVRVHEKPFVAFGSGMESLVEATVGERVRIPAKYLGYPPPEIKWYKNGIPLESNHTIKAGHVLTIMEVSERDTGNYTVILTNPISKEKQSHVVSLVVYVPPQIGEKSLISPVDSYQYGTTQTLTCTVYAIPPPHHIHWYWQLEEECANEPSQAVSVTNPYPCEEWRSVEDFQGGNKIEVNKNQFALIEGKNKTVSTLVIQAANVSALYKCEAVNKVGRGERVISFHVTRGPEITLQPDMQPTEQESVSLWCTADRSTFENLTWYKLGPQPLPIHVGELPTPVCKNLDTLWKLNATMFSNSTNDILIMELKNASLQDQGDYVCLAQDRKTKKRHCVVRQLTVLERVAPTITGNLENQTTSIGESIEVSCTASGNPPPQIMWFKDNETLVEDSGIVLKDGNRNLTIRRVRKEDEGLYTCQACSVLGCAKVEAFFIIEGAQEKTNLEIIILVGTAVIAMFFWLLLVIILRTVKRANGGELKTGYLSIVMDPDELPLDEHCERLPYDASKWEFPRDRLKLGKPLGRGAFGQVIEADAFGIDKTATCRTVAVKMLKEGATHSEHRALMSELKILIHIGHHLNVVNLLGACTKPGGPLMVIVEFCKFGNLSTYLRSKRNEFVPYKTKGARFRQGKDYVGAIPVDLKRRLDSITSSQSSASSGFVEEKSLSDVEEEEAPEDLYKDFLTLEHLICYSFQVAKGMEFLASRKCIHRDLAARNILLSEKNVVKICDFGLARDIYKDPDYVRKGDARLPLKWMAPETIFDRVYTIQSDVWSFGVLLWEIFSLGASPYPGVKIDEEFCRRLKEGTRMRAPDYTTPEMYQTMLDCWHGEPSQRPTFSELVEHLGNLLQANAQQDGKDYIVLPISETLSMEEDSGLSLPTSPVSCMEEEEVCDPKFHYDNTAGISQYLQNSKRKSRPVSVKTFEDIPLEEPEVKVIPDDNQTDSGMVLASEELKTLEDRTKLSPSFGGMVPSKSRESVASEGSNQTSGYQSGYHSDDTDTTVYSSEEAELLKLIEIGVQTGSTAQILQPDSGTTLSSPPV
Put plainly: Inhibitory activity against KDR (VEGF-R2), in vitro data of Examples 170 and 207. As to conditions: 10 μM; Examples 1 to 169; read-out: KDR inhibition at 10 μM. The procedure, abridged:
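KDR tyrosine phosphorylation detected by luminescence after overnight 4° C capture of 20 μg lysate protein with PY20:AP antibody. Lysates came from cells given compound for 2 h at 37° C, then final 20 ng/ml VEGF for 5 min; compound-free medium as control.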

In a further experiment the target is T3, Tek (Homo sapiens, UniProt Q02763).
T3 construct: amino acids 773-1124 of the cytoplasmic kinase domain of human Tek, N-terminally fused to GST; made in house; host or cells: Sf9 insect cells (baculovirus)
T3 sequence (Q02763 773-1124): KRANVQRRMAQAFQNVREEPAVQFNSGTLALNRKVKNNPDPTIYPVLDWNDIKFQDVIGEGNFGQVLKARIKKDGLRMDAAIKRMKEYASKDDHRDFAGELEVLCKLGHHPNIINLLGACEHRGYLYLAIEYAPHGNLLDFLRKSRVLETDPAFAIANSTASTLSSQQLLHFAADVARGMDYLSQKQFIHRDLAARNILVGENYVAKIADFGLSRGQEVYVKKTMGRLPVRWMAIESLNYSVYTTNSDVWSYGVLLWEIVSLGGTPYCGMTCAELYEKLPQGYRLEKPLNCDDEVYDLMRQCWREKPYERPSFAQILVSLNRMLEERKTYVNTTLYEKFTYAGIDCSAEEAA
Put plainly: Recombinant GST-Tek (Tie-2) tyrosine kinase assay (33P into poly(Glu,Tyr)). As to conditions: Examples 1 to 169. The procedure, abridged: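 Read-out is filter-bound 33P in poly(Glu,Tyr) 4:1 (10 μg/mL) after 30 min at ambient temperature with 4.0 μM ATP. Enzyme: 150 ng human GST-Tek (aa 773-1124) from insect cells, in Tris pH 7.5 with Mn2+/Mg2+ and vanadate. IC50 fitted linearly over four concentrations, usually 0.01-10 μM.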

Counter-ions that a name gives are not always drawn.

T1 sequence (P22607 411-806 K650E): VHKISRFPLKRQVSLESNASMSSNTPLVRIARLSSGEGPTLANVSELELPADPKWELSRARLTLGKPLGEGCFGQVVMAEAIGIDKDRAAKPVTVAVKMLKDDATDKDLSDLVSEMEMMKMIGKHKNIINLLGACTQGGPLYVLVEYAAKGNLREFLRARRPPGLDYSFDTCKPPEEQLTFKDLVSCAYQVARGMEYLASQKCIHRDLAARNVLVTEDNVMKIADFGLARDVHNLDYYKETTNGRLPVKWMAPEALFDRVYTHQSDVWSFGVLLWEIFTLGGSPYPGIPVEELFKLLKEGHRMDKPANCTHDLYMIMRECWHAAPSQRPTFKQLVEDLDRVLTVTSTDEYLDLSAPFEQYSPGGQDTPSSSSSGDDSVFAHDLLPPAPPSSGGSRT

One may read the inhibition as the share of the control response that was lost under treatment. Take `CN(C(=O)Nc1c(Cl)cccc1Cl)c1cc(Nc2cccc(Cl)c2)ncn1` [Example 124, 1-[6-(3-Chloro-phenylamino)-pyrimidin-4-yl]-3-(2,6-dichloro-phenyl)-1-methyl-urea]: the inhibition at 10 µM on FGFR3 (K650E) was in the range of 27 to 100%; at KDR, 67 to 100%; on Tek, 12 to 100%.

In the case of `O=C(Nc1cc(Nc2ccc(OCCCN3CCOCC3)cc2)ncn1)Nc1ccccc1Cl` [Example 125, 1-(2-Chloro-Phenyl)-3-{6-[4-(3-morpholin-4-yl-propoxy)-phenylamino]-pyrimidin-4-yl}-urea bis-hydrochloride Salt], the figures for the inhibition at 10 µM on FGFR3 (K650E), at KDR and on Tek were 27 to 100%, 67 to 100% and 12 to 100%, respectively.

As for `CCN(CC)CCOc1ccc(Nc2cc(NC(=O)Nc3ccccc3Cl)ncn2)cc1` [Example 126, 1-(2-Chloro-phenyl)-3-{6-[4-(2-diethylamino-ethoxy)-phenylamino]-pyrimidin-4-yl}-urea], the values for the inhibition at 10 µM at FGFR3 (K650E), at KDR and at Tek were 27 to 100%, 67 to 100% and 12 to 100%, respectively.

For the compound `Cc1cccc(C)c1NC(=O)N(C)c1cc(Nc2cccc(Cl)c2)ncn1` [Example 127, 1-[6-(3-Chloro-phenylamino)-pyrimidin-4-yl]-3-(2,6-dimethyl-phenyl)-1-methyl-urea], the inhibition at 10 µM at FGFR3 (K650E) was in the range of 27 to 100%; on KDR, 67 to 100%; on Tek, 12 to 100%.

Consider `O=C(Nc1cc(Nc2cccc(Cl)c2)ncn1)Nc1ccccc1Cl` [Example 128, 3-(2-Chloro-phenyl)-1-[6-(3-chloro-phenylamino)-pyrimidin-4-yl]-urea], for which the inhibition at 10 µM at FGFR3 (K650E) lay within 27 to 100%; at KDR, 67 to 100%; on Tek it was 12 to 100%.

As to `O=C(Nc1cc(Nc2cccc(Cl)c2)ncn1)Nc1ccccc1Br` [Example 129, 1-(2-Bromo-phenyl)-3-[6-(3-chloro-phenylamino)-pyrimidin-4-yl]-urea], the inhibition at 10 µM lay in the range of 27 to 100% on FGFR3 (K650E), 67 to 100% on KDR and 12 to 100% at Tek.

Consider `O=C(Nc1cc(Nc2cccc(Cl)c2)ncn1)Nc1ccccc1F` [Example 130, 1-[6-(3-Chloro-phenylamino)-pyrimidin-4-yl]-3-(2-fluoro-phenyl)-urea], for which the figures for the inhibition at 10 µM on FGFR3 (K650E), on KDR and at Tek were 27 to 100%, 67 to 100% and 12 to 100%, respectively.

Turning to `COc1cccc(NC(=O)Nc2cc(Nc3cccc(Cl)c3)ncn2)c1` [Example 131, 1-[6-(3-Chloro-phenylamino)-pyrimidin-4-yl]-3-(3-methoxy-Phenyl)-urea], the results for the inhibition at 10 µM on FGFR3 (K650E), at KDR and at Tek were 27 to 100%, 67 to 100% and 12 to 100%, respectively.

In the case of `COc1ccc(OC)c(NC(=O)Nc2cc(Nc3cccc(Cl)c3)ncn2)c1` [Example 132, 1-[6-(3-Chloro-phenylamino)-pyrimidin-4-yl]-3-(2,5-dimethoxy-phenyl)-urea], the inhibition at 10 µM was 27 to 100% on FGFR3 (K650E), 67 to 100% at KDR and 12 to 100% at Tek.

`O=C(Nc1cc(Nc2cccc(Cl)c2)ncn1)Nc1ccccc1C(F)(F)F` [Example 133, 1-[6-(3-Chloro-phenylamino)-pyrimidin-4-yl]-3-(2-trifluoromethyl-phenyl)-urea]: the figures for the inhibition at 10 µM at FGFR3 (K650E), at KDR and at Tek were 27 to 100%, 67 to 100% and 12 to 100%, respectively.

Consider `COc1ccc(C)c(NC(=O)Nc2cc(Nc3cccc(Cl)c3)ncn2)c1` [Example 134, 1-[6-(3-Chloro-phenylamino)-pyrimidin-4-yl]-3-(5-methoxy-2-methyl-phenyl)-urea], for which the results for the inhibition at 10 µM on FGFR3 (K650E), at KDR and on Tek were 27 to 100%, 67 to 100% and 12 to 100%, respectively.

Turning to `O=C(Nc1cccc(Cl)c1)Nc1cc(Nc2cccc(Cl)c2)ncn1` [Example 135, 1-(3-Chloro-phenyl)-3-[6-(3-chloro-phenylamino)-pyrimidin-4-yl]-urea], the values for the inhibition at 10 µM at FGFR3 (K650E), at KDR and at Tek were 27 to 100%, 67 to 100% and 12 to 100%, respectively.

Turning to `COc1cc(NC(=O)Nc2cc(Nc3cccc(Cl)c3)ncn2)cc(OC)c1OC` [Example 136, 1-[6-(3-Chloro-phenylamino)-pyrimidin-4-yl]-3-(3,4,5-trimethoxy-phenyl)-urea], the inhibition at 10 µM was 27 to 100% on FGFR3 (K650E), 67 to 100% at KDR and 12 to 100% on Tek.

On to `O=C(Nc1cc(Nc2cccc(Cl)c2)ncn1)Nc1c(Cl)cccc1Cl` [Example 137, 1-[6-(3-Chloro-phenylamino)-pyrimidin-4-yl]-3-(2,6-dichloro-Phenyl)-urea], for which the inhibition at 10 µM on FGFR3 (K650E) was in the range of 27 to 100%; at KDR, 67 to 100%; on Tek it was 12 to 100%.

As for `O=C(Nc1ccc(Cl)cc1)Nc1cc(Nc2cccc(Cl)c2)ncn1` [Example 138, 1-(4-Chloro-phenyl)-3-[6-(3-chloro-phenylamino)-pyrimidin-4-yl]-urea], the figures for the inhibition at 10 µM on FGFR3 (K650E), on KDR and on Tek were 27 to 100%, 67 to 100% and 12 to 100%, respectively.

As for `COc1cc(NC(=O)Nc2cc(Nc3cccc(Cl)c3)ncn2)cc(OC)c1` [Example 139, 1-[6-(3-Chloro-phenylamino)-pyrimidin-4-yl]-3-(3,5-dimethoxy-phenyl)-urea], the inhibition at 10 µM on FGFR3 (K650E) lay within 27 to 100%; at KDR, 67 to 100%; on Tek, 12 to 100%.

For `Cc1cccc(C)c1NC(=O)Nc1cc(Nc2cccc(Cl)c2)ncn1` [Example 140, 1-[6-(3-Chloro-phenylamino)-pyrimidin-4-yl]-3-(2,6-dimethyl-phenyl)-urea], the values for the inhibition at 10 µM on FGFR3 (K650E), at KDR and at Tek were 27 to 100%, 67 to 100% and 12 to 100%, respectively.

Take `O=C(Nc1ccccc1)Nc1cc(Nc2cccc(Cl)c2)ncn1` [Example 141, 1-[6-(3-Chloro-phenylamino)-pyrimidin-4-yl]-3-phenyl-urea]: the figures for the inhibition at 10 µM on FGFR3 (K650E), at KDR and at Tek were 27 to 100%, 67 to 100% and 12 to 100%, respectively.

Regarding `O=C(Nc1cc(Nc2ccc(OCCN3CCOCC3)cc2)ncn1)Nc1ccccc1Cl` [Example 142, 1-(2-Chloro-phenyl)-3-{6-[4-(2-morpholin-4-yl-ethoxy)-phenylamino]-pyrimidin-4-yl}-urea], the inhibition at 10 µM on FGFR3 (K650E) fell in the range of 27 to 100%; on KDR, 67 to 100%; on Tek it was 12 to 100%.

On to `CCN(C(=O)Nc1c(Cl)c(OC)cc(OC)c1Cl)c1cc(Nc2ccc(N3CCN(C)CC3)cc2)ncn1` [Example 143, 3-(2,6-Dichloro-3,5-dimethoxy-phenyl)-1-ethyl-1-{6-[4-(4-methyl-piperazin-1-yl)-phenylamino]-pyrimidin-4-yl}-urea], for which the figures for the inhibition at 10 µM on FGFR3 (K650E), at KDR and at Tek were 27 to 100%, 67 to 100% and 12 to 100%, respectively.

In the case of `CCN1CCN(c2ccc(Nc3cc(N(C)C(=O)Nc4c(Cl)c(OC)cc(OC)c4Cl)ncn3)cc2)CC1` [Example 145, 3-(2,6-Dichloro-3,5-dimethoxy-phenyl)-1-{6-[4-(4-ethyl-piperazin-1-yl)-phenylamino]-pyrimidin-4-yl}-1-methyl-urea], the values for the inhibition at 10 µM at FGFR3 (K650E), on KDR and on Tek were 27 to 100%, 67 to 100% and 12 to 100%, respectively.

`COc1cc(OC)c(Cl)c(NC(=O)N(C)c2cc(Nc3ccc(OCCCN4CCN(C)CC4)cc3)ncn2)c1Cl` [Example 146, 3-(2,6-Dichloro-3,5-dimethoxy-phenyl)-1-methyl-1-(6-{4-[3-(4-methyl-piperazin-1-yl)-propoxy]-phenylamino}-pyrimidin-4-yl)-urea]: the inhibition at 10 µM on FGFR3 (K650E) is 27 to 100%; on KDR, 67 to 100%; at Tek, 12 to 100%.

In the case of `CCN1CCN(Cc2ccc(Nc3cc(N(C)C(=O)Nc4c(Cl)c(OC)cc(OC)c4Cl)ncn3)cc2)CC1` [Example 149, 3-(2,6-Dichloro-3,5-dimethoxy-phenyl)-1-{6-[4-(4-ethyl-piperazin-1-ylmethyl)-phenylamino]-pyrimidin-4-yl}-1-methyl-urea], the inhibition at 10 µM fell in the range of 27 to 100% on FGFR3 (K650E), 67 to 100% at KDR and 12 to 100% at Tek.

As to `CCN1CCN(Cc2cccc(Nc3cc(N(C)C(=O)Nc4c(Cl)c(OC)cc(OC)c4Cl)ncn3)c2)CC1` [Example 150, 3-(2,6-Dichloro-3,5-dimethoxy-phenyl)-1-{6-[3-(4-ethyl-piperazin-1-ylmethyl)-phenylamino]-pyrimidin-4-yl}-1-methyl-urea], the inhibition at 10 µM on FGFR3 (K650E) was 27 to 100%; on KDR it was 67 to 100%; at Tek, 12 to 100%.

Take `CCN(C(=O)Nc1c(Cl)c(OC)cc(OC)c1Cl)c1cc(Nc2cccc(CN(C)C)c2)ncn1` [Example 151, 3-(2,6-Dichloro-3,5-dimethoxy-phenyl)-1-[6-(3-dimethylaminomethyl-phenylamino)-pyrimidin-4-yl]-1-ethyl-urea]: the inhibition at 10 µM at FGFR3 (K650E) lay within 27 to 100%; at KDR it was 67 to 100%; on Tek, 12 to 100%.

For the origin of these results see patent US8552002B2 (Novartis AG, priority 2004, dated 2013).
